Here are results for nine molecules from patent publication US6440946B1, “Multiple-agents-binding compound, production and use thereof” (Takeda Chemical Industries, Ltd., priority 1999, dated 2002).

One may read the inhibition as the relative decrease from the control value, in per cent. In general, EC50 refers to the midpoint of the concentration-response curve. Lower therefore signals higher potency in that assay.

For one assay, the target named is T1, recombinant HIV protease (Human immunodeficiency virus type 1 group M subtype B, UniProt P12497).
T1 construct: Instead of natural HIV protease, recombinant HIV protease already reported in the literature
The assay can be described thus: HIV protease inhibitory activity (cleavage of synthetic nonapeptide substrate, reverse phase HPLC). The assay is classed as biochemical. Conditions: pH5.5, 37° C., 60 minutes; for Inhibition of HIV protease (inhibitory rate) / inhibition at 5 µM: final concentration of Test Compound 5 μM; for inhibition at 5 µM: read-out: Inhibition of HIV protease (inhibitory rate). The method, then: HIV protease inhibitory activity of the compounds of the present invention [Compounds of Working Examples 1-7] was evaluated according to the test method already reported in the literature (Journal of Synthetic Organic Chemistry, Japan, 52,403-412 (1994), Japanese Patent Unexamined Publication No. 1993-170722, etc.). In addition, using Compounds of Reference Examples 1-4, similar test was carried out.
Instead of natural HIV protease, recombinant HIV protease already reported in the literature (cf. Science, 230, 949 (1985)) was used for the evaluation of HIV protease inhibitory activity (cf. Japanese Patent Unexamined Publication No. 1993-170722, etc.). As the substrate of said recombinant HIV protease, synthetic nonapeptide substrate (Ac-Arg-Ala-Ser-Gln-Asn-Tyr-Pro-Val-Val-NH2 trifluoroacetate) was used, and protease activity was determined.
Fifteen μl of the reaction solution containing 100 mM (final concentration) of MES buffer solution (pH5.5), 40 mM of said substrate, 9.2 μg of said recombinant HIV protease, and various concentration of Test Compound (for example, Test Compound was previously dissolved in DMSO, etc.) was used, and the reaction was started after said recombinant HIV protease had been added to the reaction solution. The reaction was carried out at 37° C. for 60 minutes, and then, the reaction was stopped by addition of 15 μl of acetonitrile. The amount of the peptide fragment produced by cleaving the substrate between -Tyr . . . Pro- of said substrate was determined according to the internal standard method of reverse phase HPLC. When the concentration of test compound was zero, protease activity was defined as 100%; when the peptide fragment was not detected, remaining protease activity was defined as 0%; and remaining protease activity was calculated based on the determined concentration of the peptide fragment. When the remaining protease activity was 0%, inhibition rate which indicates activity inhibiting HIV protease was defined as 100%, and the inhibition rate was defined according to the value taken the remaining protease activity indicated by said percentage from 100%.
(§1) The results of HIV protease inhibitory activity and anti-HIV activity of the compound of the present invention evaluated by the above-mentioned methods were shown in Table 1, together with the results of Compound of Reference Example. In Table 1, HIV protease inhibitory activity is shown as the inhibitory rate when the final concentration of Test Compound in the reaction solution was 5 μM, and the values in parentheses correspond to the inhibitory rate when the final concentration of Test Compound in the reaction solution was 50 nM.

In assay [1] the test system is HIV-1 IIIB (HTLV-IIIB) virus in CEMM-SS cells. The assay can be described thus: Anti-HIV activity: prevention of death of HIV-infected T cell lymphocytes (MTT method). It counts as cell-based, HIV type 1 virus. As to conditions: 6 days. On the procedure: Anti-HIV activity of the compounds of the present invention was evaluated according to the method described below.
The inhibitory effect on virus particle formation of HIV virus with which T cell lymphocytes were infected was evaluated according to ability to prevent T cell lymphocytes infected with said HIV virus from dying.
According to the test method described in the literature (O. S. Weislow et al., J. Natl. Cancer Inst., 81, 577 (1989), etc.), anti-HIV activity of the compounds of the present invention was evaluated. As the T cell lymphocytes, CEMM-SS cells were used. As the HIV virus, HIV-1 IIIB (HTLV-IIIB) virus which is HIV type 1 virus was used. On 96 well microtiter plate containing 200 μl of culture medium (RPMI-1640 medium containing 50 μg/ml of gentamicin and 10% fetal calf serum), determined concentration of Test Compound and HIV-1 IIIB virus (the mount of virus per well is that necessary for completely killing infected cells 6 days after infection), CEMM-SS cell (2.5×10^4 cells/ml) were inoculated and cultivated at 37° C. for 6 days in the incubator containing 5% CO2. Thereafter, the number of living cells was determined by the MTT method (R. Pauwels et al., J. Virol. Methods, 20, 309 (1988), etc.), and the determined value was defined as (ODT)HIV. HIV-non-infected CEMM-SS cells and HIV-infected CEMM-SS cells were respectively cultivated under the same conditions provided that the concentration of Test Compound was zero. Thereafter, the number of living cells was determined, and the respectively determined value was defined as (ODC)MOCK and (ODC)HIV. Using these values, (ODT)HIV, (ODC)MOCK and (ODC)HIV, inhibitory rate, ratio preventing T cell lymphocytes infected with said HIV virus from dying, was calculated according to the following formula:
[(ODT)HIV−(ODC)HIV][/(ODC)MOCK−(ODC)HIV]
Based on EC50 which is the concentration of Test Compound making the calculated inhibitory rate 50%, anti-HIV activity was evaluated.
as §1
On the technique in general: Tetrazolium dyes change colour on reduction, which living cells bring about.

The mark [2] stands for this setting: final concentration of Test Compound 50 nM.
[3] abbreviates: Human immunodeficiency virus 1, 144 h.

The structures appear in SMILES notation.

As to `CC(C)(C)NC(=O)[C@H]1N(C(=O)[C@@H](O)[C@H](Cc2ccccc2)NC(=O)CC(C)(C)C(=O)O)CSC1(C)C` [Ref. Ex. 2, (R)-N-t-butyl-3-[(2S,3S)-3-(3,3-dimethylsuccinyl)amino-2-hydroxy-4-phenylbutyryl]-5,5-dimethyl-1,3-thiazolidine-4-carboxamide], the “Inhibition of HIV protease (inhibitory rate, values in parentheses)” value on recombinant HIV protease (setting [2]) is given as “(76%)”. Moreover, the “Inhibition of HIV protease (inhibitory rate)” value (from here on “Inhibition … (inhibitory rate)”) on recombinant HIV protease came out at 99%.

In the case of `Cc1ccccc1CNC(=O)[C@@H]1CSCN1C(=O)[C@@H](O)[C@H](Cc1ccccc1)NC(=O)C(C)C(C)C(=O)OC[C@H]1O[C@@H](n2cc(C)c(=O)[nH]c2=O)CC1N=[N+]=[N-]` (stereo partly drawn) [Working Ex. 5, {(2S,5R)-3-azido-5-[5-methyl-2,4-dioxo-3,4-dihydro-1(2H)-pyrimidinyl]tetrahydro-2-furanyl}methyl 4-([(1S,2S)-1-benzyl-2-hydroxy-3-((4R)-4-([(2-methylbenzyl)amino]carbonyl}-1,3-thiazolidin-3-yl)-3-oxopropyl]amino)-2,3-dimethyl-4-oxobutanoate], the inhibition at 5 µM on recombinant HIV protease (pH 5.5) is 57%. Moreover, a half-maximal effect in assay [1] (setting [3]) (EC50) was put at 8.9 nM.

With `Cc1ccccc1CNC(=O)[C@@H]1CSCN1C(=O)[C@@H](O)[C@H](Cc1ccccc1)NC(=O)CC(C)(C)C(=O)O` [Ref. Ex. 3, (R)-N-(2-methylbenzyl)-3-[(2S,3S)-3-(3,3-dimethylsuccinyl)amino-2-hydroxy-4-phenylbutyryl]-1,3-thiazolidine-4-carboxamide], at recombinant HIV protease, the “Inhibition … (inhibitory rate)” value is on record as 87%.

`Cc1ccccc1CNC(=O)[C@H]1N(C(=O)[C@@H](O)[C@H](Cc2ccccc2)NC(=O)CC(C)(C)C(=O)O)CSC1(C)C` [Ref. Ex. 4, (R)-N-(2-methylbenzyl)-3-[(2S,3S)-3-(3,3-dimethylsuccinyl)amino-2-hydroxy-4-phenylbutyryl]-5,5-dimethyl-1,3-thiazolidine-4-carboxamide]: the “Inhibition of HIV protease (inhibitory rate, values in parentheses)” value at recombinant HIV protease (setting [2]) is reported as “(78%)”. The “Inhibition … (inhibitory rate)” value on recombinant HIV protease is reported as 100%.

`Cc1cn([C@H]2C[C@H](N=[N+]=[N-])[C@@H](CO)O2)c(=O)[nH]c1=O` [AZT, 3′-azido-3′-deoxythymidine, reference compound] returned an EC50 in assay [1] (setting [3]) of 11 nM.

As for `Cc1ccccc1CNC(=O)[C@H]1N(C(=O)[C@@H](O)[C@H](Cc2ccccc2)NC(=O)C(C)C(C)C(=O)OC[C@H]2O[C@@H](n3cc(C)c(=O)[nH]c3=O)CC2N=[N+]=[N-])CSC1(C)C` (stereo partly drawn) [Working Ex. 7, {(2S,5R)-3-azido-5-[5-methyl-2,4-dioxo-3,4-dihydro-1(2H)-pyrimidinyl]tetrahydro-2-furanyl}methyl 4-([(1S,2S)-1-benzyl-3-((4R)-5,5-dimethyl-4-{[(2-methylbenzyl)amino]carbonyl}-1,3-thiazolidin-3-yl)-2-hydroxy-3-oxopropyl]amino}-2,3-dimethyl-4-oxobutanoate], the inhibition at 0.05 µM at recombinant HIV protease (pH 5.5, final concentration of Test Compound 50 nM, read-out: Inhibition of HIV protease (inhibitory rate, values in parentheses)) was 39%. Also, the inhibition at 5 µM on recombinant HIV protease (pH 5.5) was 96%. In assay [1] (setting [3]), this molecule returned an EC50 of 7.3 nM.

On to `Cc1ccccc1CNC(=O)[C@@H]1CSCN1C(=O)[C@@H](O)[C@H](Cc1ccccc1)NC(=O)CC(C)(C)C(=O)OC[C@H]1O[C@@H](n2cc(C)c(=O)[nH]c2=O)CC1N=[N+]=[N-]` (some centres unmarked) [Working Ex. 4], for which the “Inhibition … (inhibitory rate)” value at recombinant HIV protease worked out at 11%. The EC50 in assay [1] turned out to be 3.8 nM.

For `Cc1ccccc1CNC(=O)[C@H]1N(C(=O)[C@@H](O)[C@H](Cc2ccccc2)NC(=O)CC(C)(C)C(=O)OC[C@H]2O[C@@H](n3cc(C)c(=O)[nH]c3=O)CC2N=[N+]=[N-])CSC1(C)C` (some centres unmarked) [Working Ex. 6], the “Inhibition … (inhibitory rate)” value at recombinant HIV protease stood at 83%. The same molecule registered an EC50 in assay [1] of 0.24 nM.

On to `CC(C)(C)NC(=O)[C@@H]1CSCN1C(=O)[C@@H](O)[C@H](Cc1ccccc1)NC(=O)CC(C)(C)C(=O)O` [Ref. Ex. 1, (R)-N-t-butyl-3-[(2S,3S)-3-(3,3-dimethylsuccinyl)amino-2-hydroxy-4-phenylbutyryl]-1,3-thiazolidine-4-carboxamide], for which the “Inhibition of HIV protease (inhibitory rate, values in parentheses)” value at recombinant HIV protease (setting [2]) is recorded as “(20%)”. Further, the “Inhibition … (inhibitory rate)” value on recombinant HIV protease worked out at 93%.
